Legend:
[1] = tested on: C3b activation on RPE-43 cell line; assay: Alternative pathway-dependent amplification of complement activation on C3b-seeded RPE-43 cell line; assay type: cell-based; conditions: after addition of C3, factor B, factor D, factor H, read-out: inhibition of further C3b activation
Description: FIGS. 1A-C are a series of graphs showing the ability of an amidine compound according to the present invention to inhibit alternative pathway-dependent amplification of C3 cleavage. In FIG. 1A, factor B, factor D, and C3 were mixed in the absence or presence of increasing concentrations of the amidine compound and generation of C3a was quantified by ELISA. In FIG. 1B, factor B, factor D, C3, and a limiting amount of factor H were mixed in the absence or presence of two doses of the amidine compound following initial deposition of C3b on Bruch's membrane via anti-CEP initiated classical pathway activation. In FIG. 1C, factor B, factor D, C3, and a limiting amount of factor H were mixed in the absence or presence of two doses of the amidine compound following initial deposition of C3b on the RPE-43 cell line by anti-class I monomorphic antibody; and To determine how effective FUT-175 is in preventing alternative pathway-dependent amplification of complement activation on Bruch's membrane and RPE cells, we seeded purified Bruch's membrane from an AMD patient and the RPE-43 cell line with C3b (as would occur with anti-CEP autoantibodies) by sensitization with anti-CEP and anti-HLA monomorphic monoclonal antibodies, respectively, followed by incubation with purified C1, C4, C2, and decay of C1 and C2. […]

[2] = tested on: laser-induced choroidal neovascularization; assay: Murine laser-induced CNV model; assay type: in vivo, mouse; conditions: i.p. injection
Description: FIGS. 2A-B are a series of flat mounts showing the effects on lesion size of the amidine compound in a laser-induced CNV mouse model.
As part of our exploration of different strategies for inhibiting complement activation intraocularly so as to arrive at what methodology could be most efficacious for treating AMD patients clinically, we utilized the standard murine CNV model and analyzed the effect of an i.p. injection of FUT-175. As shown diagrammatically in FIGS. 2A-B, the drug reduced lesion size by >80%.

N=C(N)Nc1ccc(C(=O)Oc2ccc3cc(C(=N)N)ccc3c2)cc1 [FUT-175, 6-amidino-2-napthyl-4-guanidinobenzoate dimethanesulfonate]
inhibition at 0.3 µM [1]: ~50% | reduction of lesion size [2]: > 80%

— US20170189366A1, “METHOD FOR TREATING DISORDERS RELATED TO COMPLEMENT ACTIVATION” (CASE WESTERN RESERVE UNIVERSITY, priority 2006, published 2017)
